Blank lines part the entries; values can stand above or below the molecule they belong to.
How the values were obtained:
[1] = test system: PI3K-α (PIK3CA) in MDA-MB-453 cells; assay: PI3K-alpha kinase (PIK3CA) activity in vitro cell based assay, MDA-MB-453 cells, AlphaLisa SureFire; settings: 0% FBS, 3 hours treatment, relative IC50
Method in brief: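 MDA-MB-453 cells in serum-free MEM with 1 μg/mL insulin treated 3 h with 10-point 1:3 compound dilutions, 0.3% DMSO. Lysates read by AlphaLisa SureFire; percent inhibition relative to DMSO (max) and 1 μM GDC-0032 (min), duplicate means fitted to 4-parameter logistic for relative IC50.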

[2] = target: T1, human full length PIK3KA H1047R mutant (p110α/p85α complex) (Homo sapiens, UniProt P42336, H1047R); assay: PI3K-alpha kinase (PIK3CA) biochemical activity, H1047R mutant, ADP-Glo; settings: PI3K-α (PIK3CA) biochemical, H1047R mutant, Soy PI lipid substrate
T1 construct: Recombinant, catalytically active human full length PIK3KA Wild-type and H1047R mutant were purchased as 1:1 complex; 6xHis (N); purchased EMD Millipore Sigma 14-792M
T1 sequence (P42336 whole entry H1047R): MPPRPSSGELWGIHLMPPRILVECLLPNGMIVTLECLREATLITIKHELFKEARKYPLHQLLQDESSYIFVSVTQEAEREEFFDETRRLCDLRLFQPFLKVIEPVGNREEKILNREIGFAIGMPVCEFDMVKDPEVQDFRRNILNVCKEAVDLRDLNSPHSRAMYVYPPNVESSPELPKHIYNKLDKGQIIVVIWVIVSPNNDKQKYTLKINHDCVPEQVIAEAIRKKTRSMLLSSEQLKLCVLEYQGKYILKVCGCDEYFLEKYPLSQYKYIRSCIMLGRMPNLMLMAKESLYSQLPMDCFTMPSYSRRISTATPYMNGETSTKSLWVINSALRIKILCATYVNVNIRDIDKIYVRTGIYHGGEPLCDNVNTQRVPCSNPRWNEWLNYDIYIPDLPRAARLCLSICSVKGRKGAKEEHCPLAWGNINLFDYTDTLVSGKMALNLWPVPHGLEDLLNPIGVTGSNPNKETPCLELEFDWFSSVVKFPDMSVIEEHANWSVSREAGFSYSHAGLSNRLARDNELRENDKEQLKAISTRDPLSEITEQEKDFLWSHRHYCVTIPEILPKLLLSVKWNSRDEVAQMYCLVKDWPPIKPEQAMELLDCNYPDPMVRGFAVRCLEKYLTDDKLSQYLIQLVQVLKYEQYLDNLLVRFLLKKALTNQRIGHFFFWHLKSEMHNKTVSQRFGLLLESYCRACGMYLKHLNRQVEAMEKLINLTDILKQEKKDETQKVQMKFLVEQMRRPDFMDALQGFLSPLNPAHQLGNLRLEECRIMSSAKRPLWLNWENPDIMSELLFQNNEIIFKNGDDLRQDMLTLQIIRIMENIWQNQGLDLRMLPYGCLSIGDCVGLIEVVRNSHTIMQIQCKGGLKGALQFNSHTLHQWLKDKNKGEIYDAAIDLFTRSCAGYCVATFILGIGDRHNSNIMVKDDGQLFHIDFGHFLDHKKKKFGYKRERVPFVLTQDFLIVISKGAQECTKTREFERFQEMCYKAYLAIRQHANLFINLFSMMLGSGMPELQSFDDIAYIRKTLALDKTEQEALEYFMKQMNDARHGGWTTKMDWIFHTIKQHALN
T1 sequence (P27986 whole entry partner): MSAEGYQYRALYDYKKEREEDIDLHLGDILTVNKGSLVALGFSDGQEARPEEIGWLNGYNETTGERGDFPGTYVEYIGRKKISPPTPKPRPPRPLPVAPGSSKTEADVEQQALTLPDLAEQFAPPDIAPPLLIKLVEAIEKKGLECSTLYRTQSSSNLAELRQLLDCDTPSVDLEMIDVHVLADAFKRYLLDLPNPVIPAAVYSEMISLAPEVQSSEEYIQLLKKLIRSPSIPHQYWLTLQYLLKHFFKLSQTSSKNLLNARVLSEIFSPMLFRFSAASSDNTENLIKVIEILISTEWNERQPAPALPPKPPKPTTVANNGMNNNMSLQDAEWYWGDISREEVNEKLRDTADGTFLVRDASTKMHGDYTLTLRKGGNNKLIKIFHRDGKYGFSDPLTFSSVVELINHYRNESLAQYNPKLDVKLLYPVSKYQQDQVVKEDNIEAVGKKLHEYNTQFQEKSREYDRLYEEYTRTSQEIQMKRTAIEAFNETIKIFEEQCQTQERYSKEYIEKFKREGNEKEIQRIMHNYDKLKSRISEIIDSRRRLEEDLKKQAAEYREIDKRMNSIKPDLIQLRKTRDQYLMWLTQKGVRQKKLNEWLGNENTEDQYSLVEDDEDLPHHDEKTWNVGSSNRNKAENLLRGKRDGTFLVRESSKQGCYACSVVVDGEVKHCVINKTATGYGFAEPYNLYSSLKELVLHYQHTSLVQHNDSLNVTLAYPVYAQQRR
Method in brief: (§1)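 ADP formation, read by ADP-Glo, is run to about 10% ATP turnover at 27 °C with 20 μM ATP and 50 μM PIP2diC8 or soy PI. WT or H1047R p110α/p85α (1–5 nM) is pre-incubated 1 h with compound in HEPES pH 7.4/MgCl2/Triton buffer, 1% DMSO. 10-point 1:3 series, logistic IC50 versus no-enzyme and DMSO controls.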

[3] = target: T2, human full length PIK3KA Wild-type (p110α/p85α complex) (Homo sapiens, UniProt P42336); assay: PI3K-alpha kinase (PIK3CA) biochemical activity, wild-type, ADP-Glo; settings: PI3K-α (PIK3CA) biochemical, Soy PI lipid substrate
T2 construct: Recombinant, catalytically active human full length PIK3KA Wild-type and H1047R mutant were purchased as 1:1 complex; 6xHis (N); purchased EMD Millipore Sigma 14-602M
Method in brief: as §1

Molecule: Cc1cc(C(C)Nc2ccccc2C(=O)O)c2oc(-c3ccc(N4CCCC4)cc3)cc(=O)c2c1 (single isomer, unassigned; isomer 2) [Example 55, 2-[1-[6-Methyl-4-oxo-2-(4-pyrrolidin-1-ylphenyl)chromen-8-yl]ethylamino]benzoic acid, Isomer 2]
- IC50 ([1]; Homo sapiens, MDA-MB-453, 3 h): 100 to 500 nM
- IC50 [2]: < 500 nM
- IC50 [3]: 1000 to 5000 nM

Molecule: Cc1cc([C@@H](C)Nc2ccc(C(F)(F)F)nc2C(=O)O)c2oc(-c3ccccc3)c(C)c(=O)c2c1 [Example 26, 3-[[(1R)-1-(3,6-Dimethyl-4-oxo-2-phenyl-chromen-8-yl)ethyl]amino]-6-(trifluoromethyl)-pyridine-2-carboxylic acid]
- IC50 ([1]; Homo sapiens, MDA-MB-453, 3 h): 50 to 100 nM
- IC50 [2]: < 500 nM
- IC50 [3]: 500 to 1000 nM

Molecule: COc1ccc(NC(C)c2cc(C)cc3c(=O)c(C)c(-c4ccccc4)oc23)c(C(=O)O)n1 (single isomer, unassigned; isomer 2) [Example 110, 3-[1-(3,6-Dimethyl-4-oxo-2-phenyl-chromen-8-yl)ethylamino]-6-methoxy-pyridine-2-carboxylic acid, Isomer 2]
- IC50 [1]: > 500 nM
- IC50 [2]: 1000 to 5000 nM
- IC50 [3]: 1000 to 5000 nM

Molecule: 2-[[(1R)-1-[3,6-Dimethyl-4-oxo-2-[4-(1H-pyrazol-5-yl)phenyl]chromen-8-yl]ethyl]amino]benzoic acid [Example 169]
- IC50 [1]: < 50 nM
- IC50 [2]: < 500 nM
- IC50 [3]: < 500 nM

Molecule: COc1ccccc1-c1cc(=O)c2cc(C)cc([C@@H](C)Nc3ccccc3C(=O)O)c2o1 [Example 67, 2-[[(1R)-1-[2-(2-Methoxyphenyl)-6-methyl-4-oxo-chromen-8-yl]ethyl]amino]benzoic acid 2,2,2-trifluoroacetic acid]
- IC50 ([1]; Homo sapiens, MDA-MB-453, 3 h): 50 to 100 nM
- IC50 [2]: < 500 nM
- IC50 [3]: > 10000 nM

Next, values leading:

- IC50 ([1]; Homo sapiens, MDA-MB-453, 3 h): < 50 nM
- IC50 [2]: < 500 nM
- IC50 [3]: 1000 to 5000 nM
Molecule: Cc1cc([C@@H](C)Nc2ccccc2C(=O)O)c2oc(-c3ccc(C#N)cc3)c(C)c(=O)c2c1 [Example 31, 2-[[(1R)-1-[2-(4-Cyanophenyl)-3,6-dimethyl-4-oxo-chromen-8-yl]ethyl]amino]benzoic acid]

- IC50 ([1]; Homo sapiens, MDA-MB-453, 3 h): 100 to 500 nM
- IC50 [2]: < 500 nM
- IC50 [3]: 1000 to 5000 nM
Molecule: COc1ncc(N[C@H](C)c2cc(C)cc3c(=O)c(C)c(-c4ccccc4)oc23)c(C(=O)O)n1 [Example 155, 2-Methoxy-5-[[(1R)-1-(3,6-dimethyl-4-oxo-2-phenyl-chromen-8-yl)ethyl]amino]pyrimidine-4-carboxylic acid 2,2,2-trifluoroacetic acid]

- IC50 [1]: < 50 nM
- IC50 [2]: < 500 nM
- IC50 [3]: 1000 to 5000 nM
Molecule: Cc1cc([C@@H](C)Nc2ccc(C#N)cc2C(=O)O)c2oc(-c3ccccc3)c(C)c(=O)c2c1 (single isomer, unassigned; isomer 2) [Example 158]

- IC50 ([1]; Homo sapiens, MDA-MB-453, 3 h): < 50 nM
- IC50 [2]: < 500 nM
- IC50 [3]: < 500 nM
Molecule: Cc1cc([C@@H](C)Nc2ccc(Br)nc2C(=O)O)c2oc(-c3cccc(C#N)c3)c(C)c(=O)c2c1 [Example 141, 6-Bromo-3-[[(1R)-1-[2-(3-cyanophenyl)-3,6-dimethyl-4-oxo-chromen-8-yl]ethyl]amino]pyridine-2-carboxylic acid]

- IC50 ([1]; Homo sapiens, MDA-MB-453, 3 h): < 50 nM
- IC50 [2]: < 500 nM
- IC50 [3]: 1000 to 5000 nM
Molecule: Cc1cc(C(C)Nc2ccc(Cl)nc2C(=O)O)c2oc(-c3ccccc3)c(I)c(=O)c2c1 (stereo not drawn) [Example 140, 6-Chloro-3-[1-(3-iodo-6-methyl-4-oxo-2-phenyl-chromen-8-yl)ethylamino]pyridine-2-carboxylic acid 2,2,2-trifluoroacetic acid]

- IC50 ([1]; Homo sapiens, MDA-MB-453, 3 h): < 50 nM
- IC50 [2]: < 500 nM
- IC50 [3]: 1000 to 5000 nM
Molecule: CNC(=O)c1ccc(-c2oc3c([C@@H](C)Nc4ccccc4C(=O)O)cc(C)cc3c(=O)c2C)cc1 [Example 151, 2-[[(1R)-1-[3,6-Dimethyl-2-[4-(methylcarbamoyl)phenyl]-4-oxo-chromen-8-yl]ethyl]amino]benzoic acid]

Reference: patent US11873295B2, “Allosteric chromenone inhibitors of phosphoinositide 3-kinase (PI3K) for the treatment of disease” (Petra Pharma Corporation, priority 2021, dated 2024)
